{
  "source": "PubChem BioAssay (NCI)",
  "key": {"SN12K1 renal": {"test_system": "SN12K1 renal", "test": "NCI tumour cell line growth inhibition, 48 h"}, "P388 leukemia": {"test_system": "P388 leukemia", "test": "NCI tumour cell line growth inhibition, 48 h"}},
  "note": "Where “and” joins values, the source holds several entries; their conditions need not be identical. Equal entries are not always repeated.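 A five-concentration, 48-hour dose response in 96-well plates underlies each endpoint, interpolated linearly between surrounding concentrations. GI50 is the concentration that inhibits growth by half. Definition used: TGI = concentration required for complete inhibition of growth.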",
  "data": [
    {"smiles": "Cc1[nH]c(=O)[nH]c(=O)c1N(CCF)CCCl", "values": [
      {"measurement": "GI50", "setting": "SN12K1 renal", "value": 187, "unit": "µM"},
      {"measurement": "TGI", "setting": "SN12K1 renal", "value": "513 µM and 703 µM and 657 µM"},
      {"measurement": "GI50", "setting": "P388 leukemia", "value": "190 µM and 58.3 µM and 223 µM"},
      {"measurement": "TGI", "setting": "P388 leukemia", "value": "485 µM and 1330 µM and 791 µM"}
    ]}
  ]
}
